Laboratory results as given in article PMC5834492, “Antimycobacterial drug discovery using Mycobacteria-infected amoebae identifies anti-infectives and new molecular targets” (Scientific Reports, 2018).

Key:
Mtb H37Rv = test system: Mtb H37Rv; design: method as in Sorrentino et al, 2015; details: ref Sorrentino et al, 2015; cited from earlier work
[1] = test system: M. marinum in BV2 microglial cells; assay type: cell-based, Mycobacterium marinum
[2] = test system: M. marinum in A. castellanii; assay type: cell-based, Mycobacterium marinum
Mtb H37Rv in THP-1 = test system: Mtb H37Rv in THP-1; design: method as in Sorrentino et al, 2015; details: ref Sorrentino et al, 2015, cited from earlier work; for Intracelullar MIC90 in THP-1: THP1 / Mtb H37Rv infection assay; for Extracellular MIC90/ Inracellular MIC90: ratio
M. marinum luxCDABE = assay type: cell-based, Mycobacterium marinum

Row | SMILES | Growth inhibition / Cytotoxicity assays: D. discoideum GFP-ABD (D. discoideum GFP-ABD) | Extracellular MIC90 (Mtb H37Rv) [µM] | Growth inhibition / Cytotoxicity assays: BV2 cells (BV2 cells) | Intracellular infection assays: BV2 / M. marinum [1] | Intracellular infection assays: A. castellanii / M. marinum [2] | Intracelullar MIC90 in THP-1 (Mtb H37Rv in THP-1) [µM] | Extracellular MIC90/ Inracellular MIC90 (Mtb H37Rv in THP-1) | Antibiotic assays: M. marinum luxCDABE (M. marinum luxCDABE)
1 | FC(F)(F)c1cc(SCc2ccccc2)nc(-c2ccccn2)n1 [GSK847913A] | 0.94 | 3.3 | False | 1.39 | 0.90 | 1.85 | 1.78 | 0.00
2 | CCc1nc2ccccc2n1CC(O)COc1cc(C)ccc1Cl (centres unmarked) [GSK889423A] | 0.94 | 8.8 | False | 1.41 | 1.18 | 5.55 | 1.58 | 0.00
3 | O=C(CCSc1ccc(Cl)cc1)Nc1nc(-c2ccccn2)cs1 [GSK920703A] | 0.48 | 8.4 | False | 1.24 | 1.34 | 5.55 | 1.51 | 0.13
4 | O=C(CCC1CCCCC1)Nc1cccc(-c2nnc(-c3ccco3)o2)c1 [GSK937213A] | 1.19 | 6.1 | False | 1.14 | 1.06 | 0.61 | 10 | 0.00
5 | Cc1ccc(C2CC(C(F)(F)F)n3ncc(C(=O)NCc4ccc5c(c4)OCO5)c3N2)cc1 (centres unmarked) [GSK937733A] | 0.94 | 5.4 | False | 1.64 | 1.38 | 0.61 | 8.85 | 1.00
6 | Cc1ccc(CNC(=O)c2cnn3c2NC(c2ccc(C)cc2)CC3C(F)F)cc1 (centres unmarked) [GSK1180781A] | 1.05 | 1.2 | False | 1.23 | 1.14 | 0.21 | 5.71 | 1.00
7 | c1ccc(CCNc2cc(-c3ccccc3)nc3nncn23)cc1 [GSK1402290A] | 0.84 | 5.5 | False | 1.11 | 1.08 | 5.55 | 0.99 | 0.14
8 | Fc1ccccc1-c1noc(N2CCN(Cc3ccc4c(c3)OCO4)CC2)n1 [GSK1434490A] | 0.93 | 5.2 | False | 1.16 | 1.24 | 5.55 | 0.94 | 0.68
9 | CCc1ccc(C2CC(C(F)(F)F)n3ncc(C(=O)NCc4cccs4)c3N2)cc1 (centres unmarked) [GSK1589671A] | 0.99 | 4.4 | False | 1.74 | 1.63 | 0.21 | 20.95 | 0.16
10 | CCc1ccc(C2CC(C(F)(F)F)n3ncc(C(=O)NCc4ccc(OC)cc4)c3N2)cc1 (centres unmarked) [GSK1589673A] | 1.16 | 4.9 | False | 1.29 | 1.34 | 0.61 | 8.03 | 1.00
11 | COc1ccc2cc(C(=O)Nc3ccc(C4CCN(C)CC4)cc3)sc2c1 [GSK1635139A] | 0.78 | 9.5 | False | 1.15 | 1.28 | 50 | 0.19 | 1.00
12 | O=C(Nc1nc(-c2ccccn2)cs1)c1cncn1-c1ccccc1 [GSK1691553A] | 0.80 | 7.9 | False | 1.01 | 1.03 | 50 | 0.16 | 0.07
13 | O=C(N[C@@H](Cc1ccccc1)C(=O)Nc1ccccc1N1CCOCC1)c1cccs1 [GSK1729177A] | 1.04 | 6.6 | True | 1.02 | 0.64 | 50 | 0.13 | 0.00
